Structures can show the parent of a compound that is named as a salt.
Molecular target: T1, PDE10A (human) (Homo sapiens, UniProt Q9Y233)
T1 construct: purchased BPS Bioscience
Assay: Measurement of PDE activity (HTRF cAMP kit), human PDE10A
Assay type: biochemical
Details: PDE enzymatic reaction, substrate 20 nM for PDE10, 60 minutes at 29 C
In short: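 Recombinant human PDE10A (10–250 pM range across PDEs) with 20 nM cAMP substrate in 20 mM Tris-HCl pH 7.5, 10 mM MgCl2, 0.1% BSA, compound pre-mixed with enzyme. Ran 60 min at 29 °C. Remaining cAMP read by HTRF, converted to % of uninhibited activity, and IC50 fitted.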

T1 sequence (Q9Y233 whole entry): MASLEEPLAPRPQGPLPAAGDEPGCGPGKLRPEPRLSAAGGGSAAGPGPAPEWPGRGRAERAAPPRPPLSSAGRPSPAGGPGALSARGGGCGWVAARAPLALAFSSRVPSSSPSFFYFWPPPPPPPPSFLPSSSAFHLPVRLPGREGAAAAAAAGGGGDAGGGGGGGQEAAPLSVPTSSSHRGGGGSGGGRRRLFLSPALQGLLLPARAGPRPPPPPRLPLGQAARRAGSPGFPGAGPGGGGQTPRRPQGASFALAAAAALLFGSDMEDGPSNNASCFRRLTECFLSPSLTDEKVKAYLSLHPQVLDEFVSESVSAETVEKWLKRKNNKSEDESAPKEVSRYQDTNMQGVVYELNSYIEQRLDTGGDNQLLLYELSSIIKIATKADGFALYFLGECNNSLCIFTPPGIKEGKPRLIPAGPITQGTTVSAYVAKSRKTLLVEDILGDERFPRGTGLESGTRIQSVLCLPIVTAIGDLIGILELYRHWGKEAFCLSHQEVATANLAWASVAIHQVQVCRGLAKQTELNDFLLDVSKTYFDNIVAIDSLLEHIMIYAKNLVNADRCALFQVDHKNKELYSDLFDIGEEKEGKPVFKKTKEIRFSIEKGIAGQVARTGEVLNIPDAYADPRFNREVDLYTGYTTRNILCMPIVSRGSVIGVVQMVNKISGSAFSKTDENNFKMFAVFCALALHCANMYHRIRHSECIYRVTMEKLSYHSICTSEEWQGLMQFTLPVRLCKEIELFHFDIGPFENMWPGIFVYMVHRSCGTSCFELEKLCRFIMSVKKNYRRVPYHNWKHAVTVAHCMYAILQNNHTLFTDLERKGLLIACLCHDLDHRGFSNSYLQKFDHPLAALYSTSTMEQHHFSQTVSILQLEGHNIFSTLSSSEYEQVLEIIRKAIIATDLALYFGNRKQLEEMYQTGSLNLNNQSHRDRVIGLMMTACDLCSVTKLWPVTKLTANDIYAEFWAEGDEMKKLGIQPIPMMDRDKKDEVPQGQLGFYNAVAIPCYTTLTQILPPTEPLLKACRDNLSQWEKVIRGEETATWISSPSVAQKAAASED

Row | Structure (SMILES) | IC50 [nM]
1 | Cc1cnccc1-c1ccnc2c1C(=O)N(CCc1ccc3ccccc3n1)C2 [Example 322, 4-(3-Methyl-pyridin-4-yl)-6-(2-quinolin-2-yl-ethyl)-6,7-dihydro-pyrrolo[3,4-b]pyridin-5-one] | < 100
2 | O=C1c2c(-c3cc[nH]n3)ccnc2CN1CCc1ccc2ccccc2n1 [Example 323, 4-(1H-Pyrazol-3-yl)-6-(2-quinolin-2-yl-ethyl)-6,7-dihydro-pyrrolo[3,4-b]pyridin-5-one] | < 100
3 | O=C1c2c(-c3ccsc3)ccnc2CN1CCc1ccc2ccccc2n1 [Example 330, 6-(2-Quinolin-2-yl-ethyl)-4-thiophen-3-yl-6,7-dihydro-pyrrolo[3,4-b]pyridin-5-one] | < 100
4 | O=C1c2c(-c3ccoc3)ccnc2CN1CCc1ccc2ccccc2n1 [Example 331, 4-Furan-3-yl-6-(2-quinolin-2-yl-ethyl)-6,7-dihydro-pyrrolo[3,4-b]pyridin-5-one] | < 100
5 | CCn1cc(-c2ccnc3c2C(=O)N(CCc2ccc4ccccc4n2)C3)cn1 [Example 333, 4-(1-Ethyl-1H-pyrazol-4-yl)-6-(2-quinolin-2-yl-ethyl)-6,7-dihydro-pyrrolo[3,4-b]pyridin-5-one] | 100 to 200
6 | Cc1ccsc1-c1ccnc2c1C(=O)N(CCc1ccc3ccccc3n1)C2 [Example 336, 4-(3-Methyl-thiophen-2-yl)-6-(2-quinolin-2-yl-ethyl)-6,7-dihydro-pyrrolo[3,4-b]pyridin-5-one] | 100 to 200
7 | CN(C)c1ncc(-c2cccc3c2CN(CCc2ccc4ccccc4n2)C3=O)cn1 [Example 341, 4-(2-Dimethylamino-pyrimidin-5-yl)-2-(2-quinolin-2-yl-ethyl)-2,3-dihydro-isoindol-1-one] | 100 to 200
8 | Cc1ncc(-c2cccc3c2CN(CCc2ccc4ccccc4n2)C3=O)s1 [Example 342, 4-(2-Methyl-thiazol-5-yl)-2-(2-quinolin-2-yl-ethyl)-2,3-dihydro-isoindol-1-one] | < 100
9 | COc1cc(-c2cccc3c2CN(CCc2ccc4ccccc4n2)C3=O)ccn1 [Example 344, 4-(2-Methoxy-pyridin-4-yl)-2-(2-quinolin-2-yl-ethyl)-2,3-dihydro-isoindol-1-one] | 100 to 200
10 | O=C1c2cccc(-c3ccsc3)c2CN1CCc1ccc2ccccc2n1 [Example 345, 2-(2-Quinolin-2-yl-ethyl)-4-thiophen-3-yl-2,3-dihydro-isoindol-1-one] | < 100
11 | O=C1c2cccc(-c3ccoc3)c2CN1CCc1ccc2ccccc2n1 [Example 346, 4-Furan-3-yl-2-(2-quinolin-2-yl-ethyl)-2,3-dihydro-isoindol-1-one] | < 100
12 | CCn1cc(-c2cccc3c2CN(CCc2ccc4ccccc4n2)C3=O)cn1 [Example 347, 4-(1-Ethyl-1H-pyrazol-4-yl)-2-(2-quinolin-2-yl-ethyl)-2,3-dihydro-isoindol-1-one] | 100 to 200
13 | Cc1cc(-c2cccc3c2CN(CCc2ccc4ccccc4n2)C3=O)n(C)n1 [Example 348, 4-(2,5-Dimethyl-2H-pyrazol-3-yl)-2-(2-quinolin-2-yl-ethyl)-2,3-dihydro-isoindol-1-one] | 100 to 200
14 | Cc1noc(C)c1-c1cccc2c1CN(CCc1ccc3ccccc3n1)C2=O [Example 349, 4-(3,5-Dimethyl-isoxazol-4-yl)-2-(2-quinolin-2-yl-ethyl)-2,3-dihydro-isoindol-1-one] | 200 to 500
15 | Cc1cnc(-c2cccc3c2CN(CCc2ccc4ccccc4n2)C3=O)cn1 [Example 350, 4-(5-Methyl-pyrazin-2-yl)-2-(2-quinolin-2-yl-ethyl)-2,3-dihydro-isoindol-1-one] | < 100
16 | Cc1ccsc1-c1cccc2c1CN(CCc1ccc3ccccc3n1)C2=O [Example 351, 4-(3-Methyl-thiophen-2-yl)-2-(2-quinolin-2-yl-ethyl)-2,3-dihydro-isoindol-1-one] | 200 to 500
17 | Cn1ccc(-c2cccc3c2CN(CCc2ccc4ccccc4n2)C3=O)c1 [Example 352, 4-(1-Methyl-1H-pyrrol-3-yl)-2-(2-quinolin-2-yl-ethyl)-2,3-dihydro-isoindol-1-one] | 100 to 200
18 | O=C1c2cccc(-c3ccnc(C4CC4)c3)c2CN1CCc1ccc2ccccc2n1 [Example 354, 4-(2-Cyclopropyl-pyridin-4-yl)-2-(2-quinolin-2-yl-ethyl)-2,3-dihydro-isoindol-1-one] | 200 to 500
19 | O=C1c2cccc(-c3cscn3)c2CN1CCc1ccc2ccccc2n1 [Example 355, 2-(2-Quinolin-2-yl-ethyl)-4-thiazol-4-yl-2,3-dihydro-isoindol-1-one] | < 100
20 | COc1cncc(-c2cccc3c2CN(CCc2ccc4ccccc4n2)C3=O)n1 [Example 356, 4-(6-Methoxy-pyrazin-2-yl)-2-(2-quinolin-2-yl-ethyl)-2,3-dihydro-isoindol-1-one] | 200 to 500
21 | O=C1c2c(cccc2-c2ccn[nH]2)CN1CCc1ccc2sccc2n1 [Example 560, 7-(1H-Pyrazol-5-yl)-2-(2-thieno[3,2-b]pyridin-5-ylethyl)isoindolin-1-one] | 100 to 200

Row | Structure (SMILES) | IC50 [nM]
22 | COc1cnccc1-c1cccc2c1CN(CCc1ccc3ccccc3n1)C2=O [compound 388, 4-(3-Methoxy-4-pyridyl)-2-[2-(2-quinolyl)ethyl]isoindolin-1-one] | 100 to 200
23 | COc1cnccc1-c1ccnc2c1C(=O)N(CCc1ccc3ccccc3n1)C2 [compound 389, 4-(3-Methoxy-4-pyridyl)-6-[2-(2-quinolyl)ethyl]-7H-pyrrolo[3,4-b]pyridin-5-one] | 100 to 200
24 | Cc1ccc2ccc(CCN3Cc4nccc(N5CCOCC5)c4C3=O)nc2c1 [compound 392, 6-[2-(7-Methyl-2-quinolyl)ethyl]-4-morpholino-7H-pyrrolo[3,4-b]pyridin-5-one] | < 100
25 | Cc1ccc2nc(CCN3Cc4nccc(-c5ccncc5)c4C3=O)ccc2c1 [compound 406, 6-[2-(6-Methyl-2-quinolyl)ethyl]-4-(4-pyridyl)-7H-pyrrolo[3,4-b]pyridin-5-one] | < 100
26 | CCc1csc(CCN2Cc3nccc(-c4ccncc4)c3C2=O)n1 [compound 407, 6-[2-(4-Ethylthiazol-2-yl)ethyl]-4-(4-pyridyl)-7H-pyrrolo[3,4-b]pyridin-5-one] | < 100
27 | O=C1c2c(-c3ccncc3F)ccnc2CN1CCc1ccc2ccccc2n1 [compound 412, 4-(3-Fluoro-pyridin-4-yl)-6-(2-quinolin-2-yl-ethyl)-6,7-dihydro-pyrrolo[3,4-b]pyridin-5-one] | < 100
28 | O=C1c2c(-c3ccncc3)ccnc2CN1CCc1cn2ccsc2n1 [compound 423, 6-(2-Imidazo[2,1-b]thiazol-6-ylethyl)-4-(4-pyridyl)-7H-pyrrolo[3,4-b]pyridin-5-one trifluoroacetate] | < 100
29 | O=C1c2c(N3CCC(C(F)F)C3)ccnc2CN1CCc1ccc2ccccc2n1 (stereo not drawn) [compound 434] | < 100
30 | O=C1c2c(N3CCC(CF)C3)ccnc2CN1CCc1ccc2ccccc2n1 (stereo not drawn) [compound 435, 4-[3-(Fluoromethyl)pyrrolidin-1-yl]-6-[2-(2-quinolyl)ethyl]-7H-pyrrolo[3,4-b]pyridin-5-one] | < 100
31 | O=C1c2c(NC3COC3)ccc(F)c2CN1CCc1ccc2ccccc2n1 [compound 437, 4-Fluoro-7-(oxetan-3-ylamino)-2-[2-(2-quinolyl)ethyl]isoindolin-1-one] | < 100
32 | O=C1c2c(-c3cccnc3)ccc(F)c2CN1CCc1ccc2ccccc2n1 [compound 438, 4-fluoro-7-(3-pyridyl)-2-[2-(2-quinolyl)ethyl]isoindolin-1-one] | < 100
33 | Cn1nccc1-c1ccc(F)c2c1C(=O)N(CCc1ccc3ccccc3n1)C2 [compound 439, 4-Fluoro-7-(2-methylpyrazol-3-yl)-2-[2-(2-quinolyl)ethyl]isoindolin-1-one] | < 100
34 | O=C1c2c(N3CCOCC3)ccc(F)c2CN1CCc1ccc2ccccc2n1 [compound 440, 4-Fluoro-7-morpholino-2-[2-(2-quinolyl)ethyl]isoindolin-1-one] | < 100
35 | COc1ccc(-c2ccc(F)c3c2C(=O)N(CCc2ccc4ccccc4n2)C3)cc1 [compound 441, 4-Fluoro-7-(4-methoxyphenyl)-2-[2-(2-quinolyl)ethyl]isoindolin-1-one] | 100 to 200
36 | O=C1c2c(-c3cn[nH]c3)ccc(F)c2CN1CCc1ccc2ccccc2n1 [compound 442, 4-Fluoro-7-(1H-pyrazol-4-yl)-2-[2-(2-quinolyl)ethyl]isoindolin-1-one trifluoroacetate] | < 100
37 | O=C1c2c(-c3cncnc3)ccc(F)c2CN1CCc1ccc2ccccc2n1 [compound 443, 4-Fluoro-7-pyrimidin-5-yl-2-[2-(2-quinolyl)ethyl]isoindolin-1-one trifluoroacetate] | < 100
38 | O=C1c2c(-c3ccc(F)cc3)ccc(F)c2CN1CCc1ccc2ccccc2n1 [compound 444, 4-Fluoro-7-(4-fluorophenyl)-2-[2-(2-quinolyl)ethyl]isoindolin-1-one] | < 100
39 | COc1ccc(-c2ccnc3c2CN(CCc2ccc4ccccc4n2)C3=O)cc1 [compound 458, 4-(4-Methoxy-phenyl)-6-(2-quinolin-2-yl-ethyl)-5,6-dihydro-pyrrolo[3,4-b]pyridin-7-one trifluoroacetate] | < 100
40 | O=C1c2c(-c3ccncc3)ccnc2CN1CCc1cc(-c2ccncc2)c2ccccc2n1 [compound 484, 4-(4-Pyridyl)-6-[2-[4-(4-pyridyl)-2-quinolyl]ethyl]-7H-pyrrolo[3,4-b]pyridin-5-one] | < 100
41 | CCc1ccc(CCN2Cc3nccc(N4CCOCC4)c3C2=O)nc1 [compound 499, 6-[2-(5-Ethyl-2-pyridyl)ethyl]-4-morpholino-7H-pyrrolo[3,4-b]pyridin-5-one trifluoroacetate] | < 100
42 | O=C1c2c(-c3ccncc3)ccnc2CN1CCc1nc(C2CC2)cs1 [compound 517, 6-[2-(4-Cyclopropylthiazol-2-yl)ethyl]-4-(4-pyridyl)-7H-pyrrolo[3,4-b]pyridin-5-one] | < 100

— patent US9938269B2, “Inhibitor compounds of phosphodiesterase type 10A” (ABBVIE INC., priority 2011, dated 2018)
